Reference: US12391701B2, “Chromene-based compounds, methods and uses thereof” (University of Minho, priority 2019, dated 2025)

test system: non-neoplastic cell line (HK2); assay: Cell viability, HK2; assay type: cell-based; conditions: Table 5; read-out: IC50 HK2
Procedure: (§1) In an embodiment, the antiproliferative activity of the compounds was further determined against renal carcinoma cell lines and non-neoplastic kidney cell line.
(§2) In an embodiment, three human breast cancer cell lines Hs578T, MDA-MB-468 and MCF-7, and a normal breast cell line MCF-10A, were obtained from ATCC (American Type Culture Collection). The cancer cell lines were cultured in Dulbecco's modified Eagle medium, 4.5 g/l glucose (DMEM, Gibco) supplemented with 10% heating inactivated Fetal Bovine Serum (FBS, Gibco) and 1% antibiotic solution (Penicillin-Streptomycin, Gibco). The normal cell line was cultured in Dulbecco's Modified Eagle Medium: Nutrient Mixture F-12 (DMEM/F12, Gibco) supplemented with 5% heating inactivated FBS (Gibco), 1% antibiotic solution (Penicillin-Streptomycin, Gibco), 1% steroid hormone (Hydrocortisone, Sigma-Aldrich), 0.1% peptide hormone (Insulin, Sigma-Aldrich) and 0.01% protein complex (Cholera Toxin, Gibco). Two distinct human acute myeloid leukemia (AML) cell lines, HL-60 (FAB M2) and KG-1 (erythroleukemia-FAB M6), and one human lymphoblastic leukemia (ALL) cell line, Jurkat (T cell type), were also used. These three cell lines were obtained from German Collection of Microorganisms and Cell cultures (DMSZ®, Deutsche Sammlung von Mikroorganismen and Zellkulturen in German). Cells were cultured in RPMI 1640 medium (Biochrom®-Merck Millipore) supplemented with 10% heating inactivated FBS (Biochrom®-Merck Millipore) and 1% antibiotic/antimitotic mixture (Invitrogen®). Three human glioblastoma (GBM) cell line models, two established and commercially available cell lines (U87MG and GAMG, kind gift from Rui M. Reis) and one primary GBM culture (GLIB) were also used. GBM cells were cultures in DMEM (Biochrom-Merck Millipore), all supplemented with 10% FBS. The Renal cell carcinoma cell lines A498, 786-O, Caki-2 and HK2 were obtained from ATCC. The cancer cell line A498 was cultured in MEM medium (Biochrom®-Merck Millipore), 786-O was cultured in RPMI 1640 medium (Biochrom®-Merck Millipore), Caki-2 was cultured in Mc Coys medium (Biochrom®-Merck Millipore) and HK2 was cultured in RPMI 1640 medium (Biochrom®-Merck Millipore). All the media were supplemented with 10% heat inactivated FBS (Biochrom®-Merck Millipore) and 1% antibiotic/antimitotic mixture (Invitrogen®). All cells were grown in a humidified incubator at 37° C. and 5% CO2. For all assays, DMSO (Dimethyl Sulfoxide, Sigma-Aldrich) controls were used.
(§3) In an embodiment, cell viability assays were performed. MCF-7, Hs578T and MCF-10A cells were plated in triplicate in 96-multiwell culture plates, at 3000 cells per mL, or 5000 cells per mL for MDA-MB-468 (100 μL/well). The cells were then allowed to adhere in complete medium, over a period of 18-20 hours. Cells were subsequently treated with 7 different concentrations (from 0.1 to 40 μM or 5 to 60 μM) of compounds or control in fresh medium. HL-60, KG-1 and Jurkat cell lines were plated in 96-multiwell culture plates at 50.000 cells/100 μL per well and treated with different concentrations (from 0.001 to 2 μM) of the compounds described (or control). Cells were plated, in triplicate, at an initial density of 2000 cells/well for GAMG, 4000 cells/well for GL18 and 6000 cells/well for U87MG, in 96-well plates, and allowed to adhere for 18-20 hours. Cells were then treated with different concentrations of the compounds (0.005 to 100 μM) or with control. A498 and 786-O cells were plated at 2000 cells per mL, Caki-2 cells were plated at 3000 cells per mL and HK2 cells were plated at 2000 cells per mL in triplicate, in 96-multiwell culture plates (100 μL/well), and allowed to adhere over a period of 18-20 hours in complete medium. The cells were then treated with 7 different concentrations (from 0.1 to 40 μM or 5 to 60 μM) of compounds or control in fresh medium. […]

| Compound | IC50 [nM] |
| --- | --- |
| Oc1ccccc1-c1nc2c([nH]1)Cc1ccccc1O2 [Compound M1159] | 5610 |
| COc1cccc2c1Oc1nc(-c3cccc(F)c3)[nH]c1C2 [MC349, 2-(3-fluorophenyl)-5-methoxy-3,9-dihydrochromeno[2,3-d]imidazoles] | 2630 |
| COc1cccc2c1Oc1nc(-c3cccc(O)c3)[nH]c1C2 [MC359, 3-(5-methoxy-3,9-dihydrochromeno[2,3-d]imidazol-2-yl)phenol] | 5290 |
| COc1cccc2c1Oc1nc(-c3ccc(Cl)cc3)[nH]c1C2 [MC412, 2-(4-chlorophenyl)-5-methoxy-3,9-dihydrochromeno[2,3-d]imidazoles] | 1630 |

test system: TNBC cell line Hs578t; assay: Cell viability assay (MTS), Hs578t; assay type: cell-based; conditions: Homo sapiens, Hs-578T; 72 h incubation
Description: In an embodiment, for a comparison study, monomers and respective dimers were selected and further evaluated in Hs578t and MDA-MB-468 breast cell lines. […] These cell lines correspond to the basal-like subtype of breast cancer, included in the known triple negative subtype, since they are negative for Estrogen receptor (ER), progesterone receptor (PR) and Human epidermal growth factor receptor 2 (HER2) molecular markers. The clinical behaviour of these breast cancer subtype is very aggressive and there is still no specific molecular therapy available.
as §2
as §3, with “control.” for “control. A498 and 786-O cells were plated at 2000 cells per mL, Caki-2 cells were plated at 3000 cells per mL and HK2 cells were plated at 2000 cells per mL in triplicate, in 96-multiwell culture plates (100 μL/well), and allowed to adhere over a period of 18-20 hours in complete medium. The cells were then treated with 7 different concentrations (from 0.1 to 40 μM or 5 to 60 μM) of compounds or control in fresh medium.”

| Compound | IC50 [nM] |
| --- | --- |
| COc1cccc(-c2nc3c([nH]2)Cc2cccc(OC)c2O3)c1O [Compound M955] | > 20000 |
| Oc1ccc(Cl)cc1-c1nc2c([nH]1)Cc1cc(Cl)ccc1O2 [Compound M1143] | > 30000 |
| COc1ccc2c(c1)Cc1[nH]c(-c3cc(OC)ccc3O)nc1O2 [Compound M1220] | > 30000 |
| COc1cccc2c1Oc1nc(-c3cccc(F)c3)[nH]c1C2 [MC349, 2-(3-fluorophenyl)-5-methoxy-3,9-dihydrochromeno[2,3-d]imidazoles] | 640 |
| COc1cccc2c1Oc1nc(-c3cccc(O)c3)[nH]c1C2 [MC359, 3-(5-methoxy-3,9-dihydrochromeno[2,3-d]imidazol-2-yl)phenol] | 3480 |
| COc1cccc2c1Oc1nc(-c3ccc(Cl)cc3)[nH]c1C2 [MC412, 2-(4-chlorophenyl)-5-methoxy-3,9-dihydrochromeno[2,3-d]imidazoles] | 980 |

test system: non-neoplastic cell line MCF-10A; assay: Cell viability assay (MTS), MCF-10A; assay type: cell-based; conditions: Homo sapiens, 72 h incubation
Procedure: (§4) In an embodiment, the cell growth inhibition and IC50 values of the synthesised and isolated chromene-based compounds were determined as part of the evaluation of the antiproliferative activity of the isolated agents. A complete study on the structure-activity relationship was performed for all the synthesised compounds. The antiproliferative activity against MCF-7 breast cancer cell lines were analysed. […] The non-neoplastic cell line MCF-10A was also used to determine the selectivity of the compounds for the tumour cells. For compounds with an IC50 value (concentration required to reduce cell viability by 50%) higher than 20 μM, the IC50 value was not determined. Selectivity index (SI) was calculated in order to evaluate the cytotoxicity of the tested compounds.
as §2
(§5) In an embodiment, cell viability assays were performed. MCF-7, Hs578T and MCF-10A cells were plated in triplicate in 96-multiwell culture plates, at 3000 cells […], or 5000 cells […] for MDA-MB-468 (100 μL/well). The cells were then allowed to adhere in complete medium, over a period of 18-20 hours. Cells were subsequently treated with 7 different concentrations (from 0.1 to 40 μM or 5 to 60 μM) of compounds or control in fresh medium. HL-60, KG-1 and Jurkat cell lines were plated in 96-multiwell culture plates at 50.000 cells/100 μL per well and treated with different concentrations (from 0.001 to 2 μM) of the compounds described (or control). Cells were plated, in triplicate, at an initial density of 2000 cells/well for GAMG, 4000 cells/well for GL18 and 6000 cells/well for U87MG, in 96-well plates, and allowed to adhere for 18-20 hours. […]

| Compound | IC50 [nM] |
| --- | --- |
| COc1cccc(-c2nc3c([nH]2)Cc2cccc(OC)c2O3)c1O [Compound M955] | > 30000 |
| Oc1ccccc1-c1nc2c([nH]1)Cc1ccccc1O2 [Compound M1159] | > 30000 |
| COc1ccc2c(c1)Cc1[nH]c(-c3cc(OC)ccc3O)nc1O2 [Compound M1220] | > 30000 |
| COc1cccc2c1Oc1nc(-c3cccc(F)c3)[nH]c1C2 [MC349, 2-(3-fluorophenyl)-5-methoxy-3,9-dihydrochromeno[2,3-d]imidazoles] | 2300 |
| COc1cccc2c1Oc1nc(-c3cccc(O)c3)[nH]c1C2 [MC359, 3-(5-methoxy-3,9-dihydrochromeno[2,3-d]imidazol-2-yl)phenol] | 6660 |
| COc1cccc2c1Oc1nc(-c3ccc(Cl)cc3)[nH]c1C2 [MC412, 2-(4-chlorophenyl)-5-methoxy-3,9-dihydrochromeno[2,3-d]imidazoles] | 1740 |

test system: TNBC cell line MDA-MB-231; assay: Cell viability assay, MDA-MB-231; assay type: cell-based; conditions: Homo sapiens

| Compound | IC50 [nM] |
| --- | --- |
| COc1cccc(-c2nc3c([nH]2)Cc2cccc(OC)c2O3)c1O [Compound M955] | 15700 |
| Oc1ccc(Cl)cc1-c1nc2c([nH]1)Cc1cc(Cl)ccc1O2 [Compound M1143] | > 30000 |
| Oc1ccccc1-c1nc2c([nH]1)Cc1ccccc1O2 [Compound M1159] | 10400 |
| Oc1ccc(Br)cc1-c1nc2c([nH]1)Cc1cc(Br)ccc1O2 [Compound M1221] | > 30000 |
| COc1cccc2c1Oc1nc(-c3cccc(F)c3)[nH]c1C2 [MC349, 2-(3-fluorophenyl)-5-methoxy-3,9-dihydrochromeno[2,3-d]imidazoles] | 1230 |
| COc1cccc2c1Oc1nc(-c3cccc(O)c3)[nH]c1C2 [MC359, 3-(5-methoxy-3,9-dihydrochromeno[2,3-d]imidazol-2-yl)phenol] | 2700 |
| COc1cccc2c1Oc1nc(-c3ccc(Cl)cc3)[nH]c1C2 [MC412, 2-(4-chlorophenyl)-5-methoxy-3,9-dihydrochromeno[2,3-d]imidazoles] | 1670 |

test system: breast cancer cell line MCF-7; assay: Cell viability assay (MTS), MCF-7; assay type: cell-based; conditions: Homo sapiens, MCF7; 72 h incubation
Procedure: as §4, §2, §5

| Compound | IC50 [nM] |
| --- | --- |
| COc1cccc(-c2nc3c([nH]2)Cc2cccc(OC)c2O3)c1O [Compound M955] | 4150 |
| Oc1ccc(Cl)cc1-c1nc2c([nH]1)Cc1cc(Cl)ccc1O2 [Compound M1143] | > 30000 |
| Oc1ccccc1-c1nc2c([nH]1)Cc1ccccc1O2 [Compound M1159] | 3680 |
| COc1ccc2c(c1)Cc1[nH]c(-c3cc(OC)ccc3O)nc1O2 [Compound M1220] | 5850 |
| Oc1ccc(Br)cc1-c1nc2c([nH]1)Cc1cc(Br)ccc1O2 [Compound M1221] | > 30000 |
| COc1cccc2c1Oc1nc(-c3cccc(F)c3)[nH]c1C2 [MC349, 2-(3-fluorophenyl)-5-methoxy-3,9-dihydrochromeno[2,3-d]imidazoles] | 770 |
| COc1cccc2c1Oc1nc(-c3cccc(O)c3)[nH]c1C2 [MC359, 3-(5-methoxy-3,9-dihydrochromeno[2,3-d]imidazol-2-yl)phenol] | 2820 |
| COc1cccc2c1Oc1nc(-c3ccc(Cl)cc3)[nH]c1C2 [MC412, 2-(4-chlorophenyl)-5-methoxy-3,9-dihydrochromeno[2,3-d]imidazoles] | 440 |

test system: renal carcinoma cell line Caki-2; assay: Cell viability (sulforhodamine B), Caki-2; assay type: cell-based; conditions: Homo sapiens, Table 5
Procedure: as §1, §2, §3

| Compound | IC50 [nM] |
| --- | --- |
| COc1cccc2c1Oc1nc(-c3cccc(F)c3)[nH]c1C2 [MC349, 2-(3-fluorophenyl)-5-methoxy-3,9-dihydrochromeno[2,3-d]imidazoles] | 440 |
| COc1cccc2c1Oc1nc(-c3cccc(O)c3)[nH]c1C2 [MC359, 3-(5-methoxy-3,9-dihydrochromeno[2,3-d]imidazol-2-yl)phenol] | 2340 |
| COc1cccc2c1Oc1nc(-c3ccc(Cl)cc3)[nH]c1C2 [MC412, 2-(4-chlorophenyl)-5-methoxy-3,9-dihydrochromeno[2,3-d]imidazoles] | 39 |

test system: renal carcinoma cell line 786-O; assay: Cell viability (sulforhodamine B), 786-O; assay type: cell-based; conditions: Homo sapiens, 786-0; Table 5
Procedure: as §1, §2, §3

| Compound | IC50 [nM] |
| --- | --- |
| Oc1ccccc1-c1nc2c([nH]1)Cc1ccccc1O2 [Compound M1159] | 3040 |
| COc1cccc2c1Oc1nc(-c3cccc(F)c3)[nH]c1C2 [MC349, 2-(3-fluorophenyl)-5-methoxy-3,9-dihydrochromeno[2,3-d]imidazoles] | 446 |
| COc1cccc2c1Oc1nc(-c3cccc(O)c3)[nH]c1C2 [MC359, 3-(5-methoxy-3,9-dihydrochromeno[2,3-d]imidazol-2-yl)phenol] | 3210 |
| COc1cccc2c1Oc1nc(-c3ccc(Cl)cc3)[nH]c1C2 [MC412, 2-(4-chlorophenyl)-5-methoxy-3,9-dihydrochromeno[2,3-d]imidazoles] | 32 |

test system: renal carcinoma cell lines; assay: First screen against renal carcinoma cell lines; assay type: cell-based; conditions: IC50 determination not pursued
Description: as §1

| Compound | biological activity in a first screen |
| --- | --- |
| COc1cccc(-c2nc3c([nH]2)Cc2cccc(OC)c2O3)c1O [Compound M955] | did not demonstrate any biological activity |
| Oc1ccc(Cl)cc1-c1nc2c([nH]1)Cc1cc(Cl)ccc1O2 [Compound M1143] | did not demonstrate any biological activity |
| COc1ccc2c(c1)Cc1[nH]c(-c3cc(OC)ccc3O)nc1O2 [Compound M1220] | did not demonstrate any biological activity |
| Oc1ccc(Br)cc1-c1nc2c([nH]1)Cc1cc(Br)ccc1O2 [Compound M1221] | did not demonstrate any biological activity |

test system: renal carcinoma cell line A498; assay: Cell viability (sulforhodamine B), A498; assay type: cell-based; conditions: Homo sapiens, Table 5
Procedure: as §1, §2, §3

| Compound | IC50 [nM] |
| --- | --- |
| Oc1ccccc1-c1nc2c([nH]1)Cc1ccccc1O2 [Compound M1159] | 13600 |
| COc1cccc2c1Oc1nc(-c3cccc(F)c3)[nH]c1C2 [MC349, 2-(3-fluorophenyl)-5-methoxy-3,9-dihydrochromeno[2,3-d]imidazoles] | 1120 |
| COc1cccc2c1Oc1nc(-c3cccc(O)c3)[nH]c1C2 [MC359, 3-(5-methoxy-3,9-dihydrochromeno[2,3-d]imidazol-2-yl)phenol] | 2450 |
| COc1cccc2c1Oc1nc(-c3ccc(Cl)cc3)[nH]c1C2 [MC412, 2-(4-chlorophenyl)-5-methoxy-3,9-dihydrochromeno[2,3-d]imidazoles] | 290 |
